In US9532961B2, “Method and kit for administering γ-glutamyl-D-cysteine for the prevention of reperfusion injury following ischemic stroke” (Rosalind Franklin University of Medicine and Science, priority 2005, dated 2017):
“Also recorded” adds a separate entry of the source.

How the values were obtained:
[1] = tested on: cultured bovine blood-brain barrier endothelial cells; assay: Intracellular calcium (Fluo-4 fluorescence) in cultured blood-brain barrier cells under simulated ischemia-reperfusion; format: cell-based; settings: 100 μM DMA (Na/H antiport inhibition), listed as DMA
Procedure: FIG. 4 is a bar graph of data showing that when cerebral capillary endothelial cells are exposed to ischemic conditions, intracellular calcium concentration increases and remains elevated during reperfusion; the elevation in intracellular calcium is prevented by pharmacological inhibition of the Na/H antiporter. Cultured bovine blood-brain barrier cells were treated as described above (FIG. 2). […] The rise in intracellular calcium observed during reperfusion was prevented by inhibiting Na/H antiport (100 μM DMA). *P<0.05 compared to control. +P<0.05 compared to reperfusion. Values are mean±SD. Intracellular calcium was measured with fluorescent imaging, using Fluo-4.
FIG. 5 is a bar graph of data showing that when cerebral capillary endothelial cells are exposed to ischemic conditions, intracellular calcium concentration increases and remains elevated during reperfusion; the elevation in intracellular calcium is prevented by pharmacological inhibition of reverse movement of the Na/Ca exchanger. Cultured bovine blood-brain barrier cells were treated as described above (FIG. 2). […] The rise in intracellular calcium observed during reperfusion was prevented by inhibiting reverse movement of Na/Ca exchange (20 μM KB-R7943). *P<0.05 compared to control. +P<0.05 compared to reperfusion. Values are mean±SD. Intracellular calcium was measured with fluorescent imaging, using Fluo-4. […]

[2] = tested on: cultured bovine blood-brain barrier endothelial cells; assay: Intracellular sodium (sodium green fluorescence) in cultured blood-brain barrier cells under simulated ischemia-reperfusion; format: cell-based; settings: 100 μM; ischemia 90 mins, reperfusion 30 mins
Procedure: FIG. 3 is a bar graph of data showing that when cerebral capillary endothelial cells are exposed to ischemic conditions, intracellular sodium concentration increases and remains elevated during reperfusion; the elevation in intracellular sodium is prevented by pharmacological inhibition of the Na/H antiporter. Cultured bovine blood-brain barrier cells were exposed to conditions simulating ischemia and reperfusion, by incubating in 95% N2/5% CO2 without glucose (90 mins) at pH 6.8, followed by room air/5% CO2 with 5.6 mM glucose (30 mins) at pH 7.4, respectively. […] The rise in intracellular sodium observed during reperfusion was prevented by inhibiting Na/H exchange (100 μM dimethylamiloride, DMA). *P<0.05. Values are mean±SD. […] Intracellular sodium was measured with fluorescent imaging, using sodium green. […]
Cultured bovine blood-brain barrier endothelial cells were exposed to conditions simulating ischemia and reperfusion as described in Example 2. Sodium fluorescence is measured in cultured bovine blood-brain barrier endothelial cells under the following conditions: 1) control (120 minutes), 2) simulated ischemia (120 minutes), 3) simulated ischemia (90 minutes) followed by simulated reperfusion (30 minutes), 4) simulated ischemia/reperfusion (90/30 minutes), in the presence of an inhibitor (dimethylamiloride, 100 μM) of Na/H exchange. […]

[3] = tested on: caspase 3 activity in cultured bovine blood-brain barrier endothelial cells; assay: Caspase 3 activity in cultured blood-brain barrier cells under simulated ischemia-reperfusion; format: cell-based; settings: 100 μM; 30 mins ischemia, 24 hours reperfusion; P<0.05 from I/Rep
From the text: FIG. 6 is a bar graph of data showing that ischemia followed by reperfusion of cultured cerebral capillary endothelial cells results in an increase of caspase 3 activity that is inhibited by an inhibitor of Na/H exchange. Caspase 3 activity is expressed in cultured blood-brain barrier cells exposed to conditions simulating ischemia-reperfusion. […] I/Rep is ischemia plus reperfusion; I/R Na inh is ischemia-reperfusion with inhibitor; I/R Cp inh is ischemia-reperfusion with a specific caspase inhibitor. Values are mean±SD for 3 observations.
Cultured blood-brain barrier cells can be exposed to conditions simulating ischemia and reperfusion, by a method similar to that reported in the literature (25). The precise composition of the incubation medium varies, depending upon the experimental protocols. In general, however, cells are incubated at 37° C. first in an ischemic medium (without glucose, pH 6.8) equilibrated with an atmosphere of 95% N2 and 5% CO2, followed by simulated reperfusion in a control medium (5.6 mM glucose, pH 7.4) equilibrated with room air and 5% CO2. […]
Caspase 3 activity was measured in cultured bovine blood-brain barrier endothelial cells under control conditions (24.5 hours), simulated ischemia (24.5 hours), or ischemia (0.5 hours) followed by reperfusion (24 hours, I/Rep) as described in Example 2. […]

[4] = Oxiselect Total Antioxidant Capacity Assay in rat serum (1-9%) in Tris Buffer; settings: 0.0625, 0.125, 0.3125 and 0.625 mM, averaged
Procedure: (§1) FIGS. 16a and 16b indicate that the antioxidant capacities of γ-Glu-Cys and γ-Glu-D-Cys are the same using an in vitro assay. Antioxidant capacities were measured with the Oxiselect Total Antioxidant Capacity Assay Kit, using uric acid as a standard. […] Values are mean±SE. N=3 separate experiments for the 0.78, 1.56, and 3.13 mM concentrations. N=2 separate experiments for the 0.39 mM concentration. *P=0.047.

in vitro = in vitro ADME; settings: rat
Procedure: Separate peaks representing the intact peptide and its metabolites are plotted as a function of time. The area under the curve for selected peaks may be measured and compared to appropriate standards to quantify the concentration of γ-Glu-Cys and its metabolites.
Loss of γ-Glu-Cys from the incubation medium, and the appearance of Cys and oxidized γ-Glu-Cys were quantified using HPLC to measure degradation, hydrolysis, and oxidation respectively. The ½-time for degradation of γ-Glu-Cys is 11.3±1.2 mins. Values are mean±SD. N=3 separate experiments.
Loss of γ-Glu-D-Cys from the incubation medium, and the appearance of D-Cys and oxidized γ-Glu-D-Cys were quantified using HPLC to measure degradation, hydrolysis, and oxidation respectively. Values are mean±SD. N=3 separate experiments.
Comparing the initial rates of degradation confirmed that γ-Glu-D-Cys is degraded more slowly (0.12±0.02 vs 0.22±0.02 mM/min, P=0.006). Values are mean±SD. N=3 separate experiments.
Values are mean±SD. N=3 separate experiments. * indicates significant difference at P<0.05.
As a measure of stability, the initial velocities of degradation for γ-Glu-Cys and γ-Glu-D-Cys were compared and found to be 0.22±0.03 vs. 0.12±0.02 (mM/min), respectively.
FIG. 11 is a graph showing the temporal comparison of degradation, oxidation and hydrolysis of γ-Glu-Cys. FIG. 12 is a graph showing the temporal comparison of degradation, oxidation, and hydrolysis of the analog γ-Glu-D-Cys. FIG. 13 is a graph comparing the degradation of γ-Glu-Cys and γ-Glu-D-Cys, as measured by the loss of intact peptide as a function of time of incubation. FIG. 14 is a graph comparing the hydrolysis of γ-Glu-Cys and γ-Glu-D-Cys, by appearance of cysteine and D-cysteine respectively, as a function of time. Mean±SE; * indicates significant difference at P<0.05. FIG. 15 is a graph comparing the oxidation of γ-Glu-Cys and γ-Glu-D-Cys, by appearance of oxidized γ-Glu-Cys and oxidized γ-Glu-D-Cys respectively, as a function of time. Mean±SE. * indicates P<0.05.

[5] = Oxiselect Total Antioxidant Capacity Assay in human plasma (90-99%)
Procedure: as §1

Human red blood cells = assay: Spontaneous hemolysis of human red blood cells (hemoglobin release at 540 nm); format: cell-based; settings: 37° C.; for difference in cytoprotective effect, γ-Glu-Cys vs γ-Glu-D-Cys: 1 mM each; for difference in cytoprotective effect, γ-Glu-Cys vs γ-Glu-D-Cys / toxicity (increase of hemolysis): 190 minutes; for spontaneous hemolysis / toxicity (increase of hemolysis): 1 mM; for spontaneous hemolysis: 5% red blood cells, phosphate buffer pH 7.4, 190 minutes
Procedure: Human red blood cells (5%) were incubated in isotonic phosphate buffer, pH 7.4 for 190 minutes at 37° C. in the presence or absence of γ-Glu-Cys and γ-Glu-D-Cys, and spontaneous hemolysis was quantified by measuring hemoglobin release spectrophotometrically at 540 nm. […] Values are mean±SE for 4 observations.

[6] = tested on: cultured blood-brain barrier endothelial cells; assay: Lactate dehydrogenase (LDH) release from cultured blood-brain barrier endothelial cells under ischemia and reperfusion; format: cell-based, bovine; settings: 1 mM; ischemia 1.5 hrs, reperfusion 3.0 hrs; P<0.05
From the text: FIG. 7 is a bar graph of data showing that the antioxidant gamma-glutamyl cysteine (γ-Glu-Cys) inhibits cell damage to cerebral capillary endothelial cells cultured under conditions of ischemia and reperfusion.
Cultured blood-brain barrier cells can be used as an in vitro cellular model to confirm that Na/Ca exchange may operate in the reverse direction under conditions simulating reperfusion, following transient ischemia. Cerebral capillary endothelial cells are isolated from bovine brain by the method of Meresse et al. (42), or purchased from Cell Systems Corporation (Kirkland, Wash.). Cells are grown and maintained (up to passage 5) on collagen type I- and fibronectin-coated tissue culture flasks in Eagle's minimal essential medium supplemented with 10% fetal bovine serum (54, 62). To form a polarized endothelium, cells are seeded on cluster plate inserts and incubated in the presence of an astrocyte conditioned medium supplemented with cAMP, as previously described (4, 54). […]
Cultured blood-brain barrier endothelial cells were incubated under conditions of ischemia (1.5 hours) followed by reperfusion (3.0 hours), in the presence and absence of γ-glutamyl cysteine (γ-Glu-Cys). Cellular damage was detected by measuring release of lactate dehydrogenase (LDH) into the incubation medium, following treatment. […]

[7] = 0.39 mM in human plasma (90-99%), N=2, P=0.047
[8] = 0.78, 1.56, and 3.13 mM in human plasma (90-99%), N=3

Compound	rise in intracellular calcium observed during reperfusion [1]	rise in intracellular sodium observed during reperfusion [2]	increase in caspase 3 activity [3]	antioxidant capacity (uric acid equivalents), γ-Glu-Cys vs γ-Glu-D-Cys [4]	initial rate (velocity) of degradation (in vitro; 6.25 mM) [mM/min]	antioxidant capacity, γ-Glu-Cys vs γ-Glu-D-Cys [5, 7]	antioxidant capacity, γ-Glu-Cys vs γ-Glu-D-Cys [5, 8]	difference in cytoprotective effect, γ-Glu-Cys vs γ-Glu-D-Cys (Human red blood cells)	spontaneous hemolysis (Human red blood cells)	toxicity (increase of hemolysis) (Human red blood cells)	intactness in serum for 1 minute (in vitro; 1 min, 6.25 mM)	half-life at 6.25 mM (in vitro; serum) [min]	LDH release (cellular damage) [6]
CN(C)c1nc(N)c(C(=O)N=C(N)N)nc1Cl [dimethylamiloride]	prevented; also recorded: inhibits the rise in intracellular calcium	prevented; also recorded: inhibits the rise in intracellular sodium	inhibited										
N[C@@H](CCC(=O)N[C@H](CS)C(=O)O)C(=O)O [γ-Glu-D-Cys, γ-glutamyl-D-cysteine]				not to be significantly different from each other	0.12 ± 0.02	marginal difference	a significant difference was not detected	no significant difference in their cytoprotective effect	significantly inhibit spontaneous hemolysis	not toxic under the experimental conditions			
N[C@@H](CCC(=O)N[C@@H](CS)C(=O)O)C(=O)O [γ-Glu-Cys, γ-glutamyl cysteine]				not to be significantly different from each other		marginal difference	a significant difference was not detected	no significant difference in their cytoprotective effect	significantly inhibit spontaneous hemolysis	not toxic under the experimental conditions	remains primarily intact for 1 minute in serum	11.3 ± 1.2	reduced LDH release; also recorded: cellular damage was significantly reduced
